Laboratory results reported in patent US9890185B2, “Urea derivatives useful as kinase inhibitors” (Respivert Limited, priority 2013, dated 2018).
Like-named read-outs stand apart in the source and are kept apart here.

Assays:
[1] = test system: PBMCs; experiment: LPS-induced IL-8 release in PBMC cells (assay b); type: cell-based, human; conditions: LPS-stimulated PBMCs, read-out: IC50 Values for Inhibition of Cytokine Release, PBMCs IL-8
Procedure: Peripheral blood mononuclear cells (PBMCs) from healthy subjects are separated from whole blood using a density gradient (Lymphoprep, Axis-Shield Healthcare). The PBMCs are seeded in 96 well plates and treated with compounds at the desired concentration for 2 hours before addition of 1 ng/mL LPS (Escherichia Coli 0111:B4 from Sigma Aldrich) for 24 hours under normal tissue culture conditions (37° C., 5% CO2). The supernatant is harvested for determination of IL-8 and TNFα concentrations by sandwich ELISA (Duo-set, R&D systems) and read on the fluorescence microplate reader (Varioskan® Flash, ThermoFisher Scientific). The concentration at 50% inhibition (IC50) of IL-8 and TNFα production is calculated from the dose response curve.

[2] = molecular target: GSK 3α (Homo sapiens (Human), UniProt P49840); experiment: GSK 3α enzyme inhibition (FRET, Z-LYTE, Method 2); type: biochemical; conditions: read-out: IC50 Values for Enzyme Inhibition, GSK3α
GSK 3α, sequence (P49840 whole entry): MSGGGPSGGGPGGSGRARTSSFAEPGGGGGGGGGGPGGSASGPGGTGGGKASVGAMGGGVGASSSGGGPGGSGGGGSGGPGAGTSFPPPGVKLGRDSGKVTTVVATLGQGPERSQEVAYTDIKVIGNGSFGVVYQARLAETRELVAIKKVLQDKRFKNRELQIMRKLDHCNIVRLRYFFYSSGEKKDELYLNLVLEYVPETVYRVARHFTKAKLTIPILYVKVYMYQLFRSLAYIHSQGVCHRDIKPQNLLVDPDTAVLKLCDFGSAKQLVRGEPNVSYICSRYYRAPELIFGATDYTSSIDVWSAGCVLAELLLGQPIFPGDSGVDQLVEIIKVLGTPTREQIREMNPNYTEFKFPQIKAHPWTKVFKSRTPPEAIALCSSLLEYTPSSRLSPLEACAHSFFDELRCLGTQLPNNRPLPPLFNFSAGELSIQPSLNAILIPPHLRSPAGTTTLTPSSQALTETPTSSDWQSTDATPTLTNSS
Procedure: The enzyme inhibitory activities of compounds disclosed herein are determined by FRET using synthetic peptides labelled with both donor and acceptor fluorophores (Z-LYTE, Invitrogen Ltd., Paisley, UK).
The following two assay variants can be used for determination of GSK 3α inhibition.
The inhibitory activities of compounds of the invention against the GSK 3α enzyme isoform (Invitrogen), are evaluated by determining the level of activation/phosphorylation of the target peptide. The GSK3-α protein (500 ng/mL, 2.5 μL) is mixed with the test compound (2.5 μL at either 4 μg/mL, 0.4 μg/mL, 0.04 μg/mL, or 0.004 μg/mL) for 2 hr at RT. The FRET peptide (8 μM, 2.5 μL), which is a phosphorylation target for GSK3α, and ATP (40 μM, 2.5 μL) are then added to the enzyme/compound mixture and the resulting mixture incubated for 1 hr. Development reagent (protease, 5 μL) is added for 1 hr prior to detection in a fluorescence microplate reader (Varioskan® Flash, ThermoFisher Scientific).
In all cases, the site-specific protease cleaves non-phosphorylated peptide only and eliminates the FRET signal. Phosphorylation levels of each reaction are calculated using the ratio of coumarin emission (donor) over fluorescein emission (acceptor), for which high ratios indicate high phosphorylation and low ratios indicate low phosphorylation levels. The percentage inhibition of each reaction is calculated relative to non-inhibited control and the 50% inhibitory concentration (IC50 value) is then calculated from the concentration-response curve.
This method follows the same steps as Method 1 above, but utilises a shorter period of mixing of the test compound (105 minutes instead of 2 hours) with the GSK3-α protein.

| Compound | IC50 [1] [µM] | IC50 [2] [µM] | IC50 ([1]; Homo sapiens, PBMC) [µM] |
| --- | --- | --- | --- |
| COc1ccccc1Nc1nccc(Oc2ccc(NC(=O)Nc3cc(C(C)(C)C)cc(P(C)(C)=O)c3OC)c3ccccc23)n1 [15(f), 1-(5-(tert-butyl)-3-(dimethylphosphoryl)-2-methoxyphenyl)-3-(4-((2-((2-methoxy-phenyl)amino)pyrimidin-4-yl)oxy)naphthalen-1-yl)urea] | 0.0262 | 3.1 | – |
| COc1ccc(Nc2nccc(Oc3ccc(NC(=O)Nc4cc(C(C)(C)C)cc(P(C)(C)=O)c4OC)c4ccccc34)n2)cc1 [15(h), 1-(5-(tert-butyl)-3-(dimethylphosphoryl)-2-methoxyphenyl)-3-(4-((2-((4-methoxy-phenyl)amino)pyrimidin-4-yl)oxy)naphthalen-1-yl)urea] | – | 0.779 | 0.0046 |
| COc1ccc(Nc2nccc(Oc3ccc(NC(=O)Nc4cc(C(C)(C)C)cc(P(C)(C)=O)c4OC)c4ccccc34)n2)cc1OC [15(i), 1-(5-(tert-butyl)-3-(dimethylphosphoryl)-2-methoxyphenyl)-3-(4-((2-((3,4-dimethoxyphenyl)amino)pyrimidin-4-yl)oxy)naphthalen-1-yl)urea] | – | 0.359 | 0.0015 |
| COc1c(NC(=O)Nc2ccc(Oc3ccnc(Nc4ccccc4)n3)c3ccccc23)cc(C(C)(C)C)cc1[S+](C)[O-] (centres unmarked) [15(k), 1-(5-(tert-butyl)-2-methoxy-3-(methylsulfinyl)phenyl)-3-(4-((2-(phenylamino)pyrimidin-4-yl)oxy)naphthalen-1-yl)urea] | – | 1.17 | 0.0056 |
| COc1c(NC(=O)Nc2ccc(Oc3ccnc(Nc4ccccc4)n3)c3ccccc23)cc(C(C)(C)C)cc1S(C)(=O)=O [15(l), 1-(5-(tert-butyl)-2-methoxy-3-(methylsulfonyl)phenyl)-3-(4-((2-(phenylamino)pyrimidin-4-yl)oxy)naphthalen-1-yl)urea] | – | 8.22 | 0.0175 |
| COc1c(CS(C)(=O)=O)cc(C(C)(C)C)cc1NC(=O)Nc1ccc(Oc2ccnc(Nc3ccccc3)n2)c2ccccc12 [15(n), 1-(5-(tert-butyl)-2-methoxy-3-((methylsulfonyl)methyl)phenyl)-3-(4-((2-(phenylamino)-pyrimidin-4-yl)oxy)naphthalen-1-yl)urea] | – | 1.64 | 0.0135 |
| COc1c(NC(=O)Nc2ccc(Oc3ccnc(Nc4ccccn4)n3)c3ccccc23)cc(C(C)(C)C)cc1P(C)(C)=O [15(o), 1-(5-(tert-butyl)-3-(dimethylphosphoryl)-2-methoxyphenyl)-3-(4-((2-(pyridin-2-ylamino)pyrimidin-4-yl)oxy)naphthalen-1-yl)urea] | – | 5.8 | 0.0204 |
| COc1c(NC(=O)Nc2ccc(Oc3ccnc(Nc4ccccc4)n3)c3ccccc23)cc(C(C)(C)C)cc1C(=O)NCCN1CCOCC1 [15(p), 5-(tert-butyl)-2-methoxy-N-(2-morpholinoethyl)-3-(3-(4-((2-(phenylamino)pyrimidin-4-yl)oxy)naphthalen-1-yl)ureido)benzamide] | – | 1.95 | 0.0094 |
| COc1c(NC(=O)Nc2ccc(Oc3ccnc(Nc4cncnc4)n3)c3ccccc23)cc(C(C)(C)C)cc1P(C)(C)=O [15(r), 1-(5-(tert-butyl)-3-(dimethylphosphoryl)-2-methoxyphenyl)-3-(4-((2-(pyrimidin-5-ylamino)pyrimidin-4-yl)oxy)naphthalen-1-yl)urea] | – | 0.188 | 0.0048 |
| COc1c(NC(=O)Nc2ccc(Oc3ccnc(Nc4cnn(C)c4)n3)c3ccccc23)cc(C(C)(C)C)cc1P(C)(C)=O [15(s), 1-(5-(tert-butyl)-3-(dimethylphosphoryl)-2-methoxyphenyl)-3-(4-((2-((1-methyl-1H-pyrazol-4-yl)amino)pyrimidin-4-yl)oxy)naphthalen-1-yl)urea] | – | 0.239 | 0.0014 |
| COc1c(NC(=O)Nc2ccc(Oc3ccnc(Nc4cccc(OS(C)(=O)=O)c4)n3)c3ccccc23)cc(C(C)(C)C)cc1P(C)(C)=O [15(t), 3-((4-((4-(3-(5-(tert-butyl)-3-(dimethylphosphoryl)-2-methoxyphenyl)ureido)-naphthalen-1-yl)oxy)pyrimidin-24)amino)phenyl methanesulfonate] | – | 0.283 | 0.0005 |
| COc1c(NC(=O)Nc2ccc(Oc3ccnc(Nc4ccccc4)n3)c3ccccc23)cc(C(C)(C)C)cc1C(=O)NCCN1CCCC1 [15(u), 5-(tert-butyl)-2-methoxy-3-(3-(4-((2-(phenylamino)pyrimidin-4-yl)oxy)naphthalen-1-yl)ureido)-N-(2-(pyrrolidin-1-yl)ethyl)benzamide] | – | 3.06 | 0.0079 |
| COc1c(NC(=O)Nc2ccc(Oc3ccnc(Nc4ccc5c(c4)NC(=O)C5)n3)c3ccccc23)cc(C(C)(C)C)cc1P(C)(C)=O [15(v), 1-(5-(tert-butyl)-3-(dimethylphosphoryl)-2-methoxyphenyl)-3-(4-((2-((2-oxoindolin-6-yl)amino)pyrimidin-4-yl)oxy)naphthalen-1-yl)urea] | – | 0.302 | 0.0028 |
| COc1c(NC(=O)Nc2ccc(Oc3ccnc(Nc4ccc5c(c4)OCCO5)n3)c3ccccc23)cc(C(C)(C)C)cc1P(C)(C)=O [15(w), 1-(5-(tert-butyl)-3-(dimethylphosphoryl)-2-methoxyphenyl)-3-(4-((2-((2,3-dihydrobenzo[b][1,4]dioxin-6-yl)amino)pyrimidin-4-yl)oxy)naphthalen-1-yl)urea] | – | 1.67 | 0.0105 |
| COc1c(NC(=O)Nc2ccc(Oc3ccnc(Nc4ccc5c(c4)CS(=O)(=O)C5)n3)c3ccccc23)cc(C(C)(C)C)cc1P(C)(C)=O [15(y), 1-(5-(tert-butyl)-3-(dimethylphosphoryl)-2-methoxyphenyl)-3-(4-((2-((2,2-dioxido-1,3-dihydrobenzo[c]thiophen-5-yl)amino)pyrimidin-4-yl)oxy)naphthalen-1-yl)urea] | – | 0.194 | 0.0009 |
| COc1c(NC(=O)Nc2ccc(Oc3ccnc(Nc4cnoc4)n3)c3ccccc23)cc(C(C)(C)C)cc1P(C)(C)=O [15(z), 1-(5-(tert-butyl)-3-(dimethylphosphoryl)-2-methoxyphenyl)-3-(4-((2-(isoxazol-4-ylamino)pyrimidin-4-yl)oxy)naphthalen-1-yl)urea] | – | 1.5 | 0.0361 |
| COc1c(CN(C)C(C)=O)cc(C(C)(C)C)cc1NC(=O)Nc1ccc(Oc2ccnc(Nc3ccccc3)c2)c2ccccc12 [38(aa), N-(5-(tert-Butyl)-2-methoxy-3-(3-(4-((2-(phenylamino)pyridin-4-yl)oxy)naphthalen-1-yl)ureido)benzyl)-N-methylacetamide] | – | 8.29 | 0.0025 |
| COc1cc(Nc2cc(Oc3ccc(NC(=O)Nc4cc(C(C)(C)C)cc(CNC(C)=O)c4OC)c4ccccc34)ccn2)cc(C(N)=O)c1 [38(ac), 3-((4-((4-(3-(3-(Acetamidomethyl)-5-(tert-butyl)-2-methoxyphenyl)ureido)naphthalen-1-yl)oxy)pyridin-2-yl)amino)-5-methoxybenzamide] | – | 0.834 | 0.0004 |
| COc1cc(Nc2cc(Oc3ccc(NC(=O)Nc4cc(C(C)(C)C)cc(CC(N)=O)c4OC)c4ccccc34)ccn2)cc(P(C)(C)=O)c1 [38(ae), 2-(5-(tert-Butyl)-3-(3-(4-((2-((3-(dimethylphosphoryl)-5-methoxyphenyl)amino)pyridin-4-yl)oxy)naphthalen-1-yl)ureido)-2-methoxyphenyl)acetamide] | – | 0.8 | 0.0012 |
